Among the data in patent US8119624B2, “Fused phenyl amido heterocyclic compounds” (Pfizer Inc., priority 2006, dated 2012) are activation, EC50 and Emax values, retold here.

The assay deals with T1, Full-length glucokinase (beta cell isoform) (Homo sapiens, UniProt P35557).
T1 construct: Full-length glucokinase (beta cell isoform) was His-tagged at N-terminus; His tag (N); made in house
T1 sequence (P35557 1-465): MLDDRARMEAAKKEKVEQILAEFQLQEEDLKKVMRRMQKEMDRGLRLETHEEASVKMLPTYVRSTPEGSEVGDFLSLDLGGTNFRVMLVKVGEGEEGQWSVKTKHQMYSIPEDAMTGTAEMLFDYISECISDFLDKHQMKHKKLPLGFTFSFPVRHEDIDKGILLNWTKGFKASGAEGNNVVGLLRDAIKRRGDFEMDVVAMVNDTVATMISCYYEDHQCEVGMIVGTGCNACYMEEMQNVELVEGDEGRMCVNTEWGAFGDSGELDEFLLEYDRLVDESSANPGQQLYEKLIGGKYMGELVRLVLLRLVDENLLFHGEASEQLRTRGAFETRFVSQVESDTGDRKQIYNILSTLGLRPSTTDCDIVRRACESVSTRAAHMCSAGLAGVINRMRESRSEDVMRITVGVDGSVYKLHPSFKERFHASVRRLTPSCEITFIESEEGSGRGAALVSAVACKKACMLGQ
The assay can be described thus: Glucokinase biochemical assay (PK/LDH-coupled, NADH depletion at 340 nm): % activation, EC50, % max activation. As to conditions: 5 mM glucose; for activation at 10 µM: 10 uM compound, % Activation=(Va/Vo−1)×100, read-out: % Activation at 10 uM; for EC50: GK activation, read-out: EC50; for Emax: fitted maximum activation, read-out: % Max Activation. In a few lines: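 Activation expressed as (Va/Vo−1)×100, where initial rates with and without compound come from NADH depletion at 340 nm over 200–900 s. Enzyme is His-tagged human beta-cell GK, full length, run at room temperature in HEPES buffer with 1 mM ATP and 5 mM glucose. DMSO 1%.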

The EC50 is the concentration that produces a half-maximal response.

Regarding `CN(C)S(=O)(=O)c1ccc(Oc2cc(C(=O)Nc3cnn(C)n3)cc3c2CC(C)(C)O3)cc1` [Example 134, 4-(4-Dimethylsulfamoyl-phenoxy)-2,2-dimethyl-2,3-dihydro-benzofuran-6-carboxylic acid (2-methyl-2H-[1,2,3]triazol-4-yl)-amide], the activation at 10 µM stood at 300%, the EC50 was found to be 0.19 µM and the Emax was 271%.
`CCS(=O)(=O)c1ccc(Oc2cc(C(=O)Nc3cnn(C)n3)cc3c2CC(C)(C)O3)cc1F` [Example 135, 4-(4-Ethanesulfonyl-3-fluoro-phenoxy)-2,2-dimethyl-2,3-dihydro-benzofuran-6-carboxylic acid (2-methyl-2H-[1,2,3]triazol-4-yl)-amide]: the activation at 10 µM is 239%, the EC50 turned out to be 0.097 µM and the Emax stood at 257%.
For `CCS(=O)(=O)c1ccc(Oc2cc(C(=O)Nc3ccn(C)n3)cc3c2CC(C)(C)O3)cc1F` [Example 136, 4-(4-Ethanesulfonyl-3-fluoro-phenoxy)-2,2-dimethyl-2,3-dihydro-benzofuran-6-carboxylic acid (1-methyl-1H-pyrazol-3-yl)-amide] the same measures were 237%, 0.12 µM and 236%.
For `Cn1ccc(NC(=O)c2cc(Oc3ccc(S(C)(=O)=O)cc3Cl)c3c(c2)OC(C)(C)C3)n1` [Example 137, 4-(2-Chloro-4-methanesulfonyl-phenoxy)-2,2-dimethyl-2,3-dihydro-benzofuran-6-carboxylic acid (1-methyl-1H-pyrazol-3-yl)-amide] the same measures were 212%, 0.27 µM and 218%.
Take `CN(C)S(=O)(=O)c1cc(F)c(Oc2cc(C(=O)Nc3cnn(C)n3)cc3c2CC(C)(C)O3)cc1F` [Example 138, 4-(4-Dimethylsulfamoyl-2,5-difluoro-phenoxy)-2,2-dimethyl-2,3-dihydro-benzofuran-6-carboxylic acid (2-methyl-2H-[1,2,3]triazol-4-yl)-amide]: the activation at 10 µM was 218%, the EC50 came out at 0.34 µM and the Emax was 224%.
For `Cn1ccc(NC(=O)c2cc(Oc3ccc(S(C)(=O)=O)c(Cl)c3)c3c(c2)OC(C)(C)C3)n1` [Example 139, 4-(3-Chloro-4-methanesulfonyl-phenoxy)-2,2-dimethyl-2,3-dihydro-benzofuran-6-carboxylic acid (1-methyl-1H-pyrazol-3-yl)-amide], in that order: 242%, 0.55 µM and 254%.
For `Cn1ncc(NC(=O)c2cc(Oc3ccc(S(=O)(=O)C4CC4)c(F)c3)c3c(c2)OC(C)(C)C3)n1` [Example 140, 4-(4-Cyclopropanesulfonyl-3-fluoro-phenoxy)-2,2-dimethyl-2,3-dihydro-benzofuran-6-carboxylic acid (2-methyl-2H-[1,2,3]triazol-4-yl)-amide], in that order: 196%, 0.17 µM and 236%.
Regarding `Cn1ccc(NC(=O)c2cc(Oc3ccc(S(=O)(=O)C4CC4)c(F)c3)c3c(c2)OC(C)(C)C3)n1` [Example 141, 4-(4-Cyclopropanesulfonyl-3-fluoro-phenoxy)-2,2-dimethyl-2,3-dihydro-benzofuran-6-carboxylic acid (1-methyl-1H-pyrazol-3-yl)-amide], the activation at 10 µM amounted to 173%, the EC50 came to 0.11 µM and the Emax is 216%.
For `CN(C)C(=O)c1ccc(Oc2cc(C(=O)Nc3cnn(C)n3)cc3c2CC(C)(C)O3)cc1F` [Example 142, 4-(4-Dimethylcarbamoyl-3-fluoro-phenoxy)-2,2-dimethyl-2,3-dihydro-benzofuran-6-carboxylic acid (2-methyl-2H-[1,2,3]triazol-4-yl)-amide] the same measures were 145%, 0.0528 µM and 130%.
`Cc1cc(NC(=O)c2cc(Oc3ccc(C(=O)N(C)C)c(F)c3)c3c(c2)OC(C)(C)C3)no1` [Example 143, 4-(4-Dimethylcarbamoyl-3-fluoro-phenoxy)-2,2-dimethyl-2,3-dihydro-benzofuran-6-carboxylic acid (5-methyl-isoxazol-3-yl)-amide]: the activation at 10 µM was determined as 47.8%, the EC50 was determined as 0.179 µM and the Emax is 50%.
`CN(C)C(=O)c1ccc(Oc2cc(C(=O)Nc3ccon3)cc3c2CC(C)(C)O3)cc1F` [Example 144, 4-(4-Dimethylcarbamoyl-3-fluoro-phenoxy)-2,2-dimethyl-2,3-dihydro-benzofuran-6-carboxylic acid isoxazol-3-ylamide]: the activation at 10 µM came to 103%, the 50% effective concentration (EC50) was 0.269 µM and the Emax turned out to be 100%.
For `CN(C)C(=O)c1ccc(Oc2cc(C(=O)Nc3ccc(CO)cn3)cc3c2CC(C)(C)O3)cc1F` [Example 145, 4-(4-Dimethylcarbamoyl-3-fluoro-phenoxy)-2,2-dimethyl-2,3-dihydro-benzofuran-6-carboxylic acid (5-hydroxymethyl-pyridin-2-yl)-amide] the same measures were 47.2%, 0.0727 µM and 46.5%.
In the case of `CN(C)C(=O)c1ccc(Oc2cc(C(=O)Nc3ccc(C(N)=O)cn3)cc3c2CC(C)(C)O3)cc1F` [Example 146, 6-{[4-(4-Dimethylcarbamoyl-3-fluoro-phenoxy)-2,2-dimethyl-2,3-dihydro-benzofuran-6-carbonyl]-amino}-nicotinamide], the activation at 10 µM amounted to 25.1%.
The same measure, in the same setting: for `CN(C)C(=O)c1ccc(Oc2cc(C(=O)Nc3ccc(CNC4CC4)cn3)cc3c2CC(C)(C)O3)cc1F` [Example 147, 4-(4-Dimethylcarbamoyl-3-fluoro-phenoxy)-2,2-dimethyl-2,3-dihydro-benzofuran-6-carboxylic acid (5-cyclopropylaminomethyl-pyridin-2-yl)-amide] the value was 35%.
Take `Cc1ccc(NC(=O)c2cc(Oc3ccc(C(=O)N(C)C)c(F)c3)c3c(c2)OC(C)(C)C3)nc1` [Example 148, 4-(4-Dimethylcarbamoyl-3-fluoro-phenoxy)-2,2-dimethyl-2,3-dihydro-benzofuran-6-carboxylic acid (5-methyl-pyridin-2-yl)-amide]: the activation at 10 µM was determined as 49.5%, the EC50 came to 0.0428 µM and the Emax turned out to be 53%.
For `CN(C)C(=O)c1ccc(Oc2cc(C(=O)Nc3ccn(C)n3)cc3c2CC(C)(C)O3)cc1` [Example 149, 4-(4-Dimethylcarbamoyl-phenoxy)-2,2-dimethyl-2,3-dihydro-benzofuran-6-carboxylic acid (1-methyl-1H-pyrazol-3-yl)-amide], in that order: 105%, 0.12 µM and 104%.
For `Cc1ccc(NC(=O)c2cc(Oc3ccc(C(=O)N(C)C)cc3)c3c(c2)OC(C)(C)C3)nc1` [Example 150, 4-(4-Dimethylcarbamoyl-phenoxy)-2,2-dimethyl-2,3-dihydro-benzofuran-6-carboxylic acid (5-methyl-pyridin-2-yl)-amide], in that order: 39.1%, 0.11 µM and 55%.
For `CN(C)C(=O)c1ccc(Oc2cc(C(=O)Nc3cnccn3)cc3c2CC(C)(C)O3)cc1` [Example 151, 4-(4-Dimethylcarbamoyl-phenoxy)-2,2-dimethyl-2,3-dihydro-benzofuran-6-carboxylic acid pyrazin-2-ylamide] the same measures were 98.1%, 0.47 µM and 97%.
As to `CN(C)C(=O)c1ccc(Oc2cc(C(=O)Nc3cc[nH]n3)cc3c2CC(C)(C)O3)cc1` [Example 152, 4-(4-Dimethylcarbamoyl-phenoxy)-2,2-dimethyl-2,3-dihydro-benzofuran-6-carboxylic acid (1H-pyrazol-3-yl)-amide], the activation at 10 µM came to 90.7%, the EC50 is 0.85 µM and the Emax worked out at 98%.
For `CN(C)C(=O)c1ccc(Oc2cc(C(=O)Nc3cnn(C)n3)cc3c2CC(C)(C)O3)cc1` [Example 153, 4-(4-Dimethylcarbamoyl-phenoxy)-2,2-dimethyl-2,3-dihydro-benzofuran-6-carboxylic acid (2-methyl-2H-[1,2,3]triazol-4-yl)-amide] the same measures were 168%, 0.15 µM and 161%.
For `Cc1cc(NC(=O)c2cc(Oc3ccc(C(=O)N(C)C)cc3)c3c(c2)OC(C)(C)C3)no1` [Example 154, 4-(4-Dimethylcarbamoyl-phenoxy)-2,2-dimethyl-2,3-dihydro-benzofuran-6-carboxylic acid (5-methyl-isoxazol-3-yl)-amide] the same measures were 36.3%, 4 µM and 54%.
Regarding `CN(C)C(=O)c1ccc(Oc2cc(C(=O)Nc3ccc(CO)cn3)cc3c2CC(C)(C)O3)cc1` [Example 155, 4-(4-Dimethylcarbamoyl-phenoxy)-2,2-dimethyl-2,3-dihydro-benzofuran-6-carboxylic acid (5-hydroxymethyl-pyridin-2-yl)-amide], the activation at 10 µM was determined as 38.4%, the EC50 came to 0.09 µM and the Emax was 43%.
